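Tested at 5 concentrations; 48 h exposure; 96-well plates; endpoints linearly interpolated, else capped at highest concentration. The concentration for 50% growth inhibition is given as GI50. TGI denotes the concentration required for complete inhibition of growth.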
How the values were obtained:
Assay in all cases: growth of human tumour cells (NCI), 48 h
786-0 renal = tested on: 786-0 renal
A498 renal = tested on: A498 renal
A549 NSCLC = tested on: A549 NSCLC
ACHN renal = tested on: ACHN renal
CAKI-1 renal = tested on: CAKI-1 renal
CCRF-CEM leukemia = tested on: CCRF-CEM leukemia
COLO 205 colon = tested on: COLO 205 colon
DLD-1 colon = tested on: DLD-1 colon
EKVX NSCLC = tested on: EKVX NSCLC
HCC-2998 colon = tested on: HCC-2998 colon
HCT-116 colon = tested on: HCT-116 colon
HCT-15 colon = tested on: HCT-15 colon
HL-60(TB) leukemia = tested on: HL-60(TB) leukemia
HOP-92 NSCLC = tested on: HOP-92 NSCLC
HT29 colon = tested on: HT29 colon
IGROV1 ovarian = tested on: IGROV1 ovarian
KM12 colon = tested on: KM12 colon
KM20L2 colon = tested on: KM20L2 colon
LOX IMVI melanoma = tested on: LOX IMVI melanoma
LXFL 529 NSCLC = tested on: LXFL 529 NSCLC
MALME-3M melanoma = tested on: MALME-3M melanoma
MOLT-4 leukemia = tested on: MOLT-4 leukemia
NCI-H226 lung = tested on: NCI-H226 lung
NCI-H23 lung = tested on: NCI-H23 lung
NCI-H460 lung = tested on: NCI-H460 lung
NCI-H522 lung = tested on: NCI-H522 lung
OVCAR-3 ovarian = tested on: OVCAR-3 ovarian
OVCAR-5 ovarian = tested on: OVCAR-5 ovarian
OVCAR-8 ovarian = tested on: OVCAR-8 ovarian
RXF 393 renal = tested on: RXF 393 renal
SF-268 CNS = tested on: SF-268 CNS
SF-295 CNS = tested on: SF-295 CNS
SF-539 CNS = tested on: SF-539 CNS
SK-MEL-2 melanoma = tested on: SK-MEL-2 melanoma
SK-MEL-28 melanoma = tested on: SK-MEL-28 melanoma
SK-MEL-5 melanoma = tested on: SK-MEL-5 melanoma
SK-OV-3 ovarian = tested on: SK-OV-3 ovarian
SN12C renal = tested on: SN12C renal
SNB-75 CNS = tested on: SNB-75 CNS
SNB-78 CNS = tested on: SNB-78 CNS
SR leukemia = tested on: SR leukemia
SW-620 colon = tested on: SW-620 colon
TK-10 renal = tested on: TK-10 renal
U251 CNS = tested on: U251 CNS
UACC-257 melanoma = tested on: UACC-257 melanoma
UACC-62 melanoma = tested on: UACC-62 melanoma
DMS 114 small cell lung = tested on: DMS 114 small cell lung
DMS 273 small cell lung = tested on: DMS 273 small cell lung
HOP-18 NSCLC = tested on: HOP-18 NSCLC
HOP-62 NSCLC = tested on: HOP-62 NSCLC
K-562 leukemia = tested on: K-562 leukemia
M14 melanoma = tested on: M14 melanoma
M19-MEL melanoma = tested on: M19-MEL melanoma
OVCAR-4 ovarian = tested on: OVCAR-4 ovarian
RPMI-8226 leukemia = tested on: RPMI-8226 leukemia
UO-31 renal = tested on: UO-31 renal

`N#[O+].O=S(=O)([O-])[O-].[NH2-].[NH2-].[NH2-].[NH2-].[NH2-].[Ru+5]` was tested, and the TGI (786-0 renal) was over 100 µM, the TGI (A498 renal) was over 100 µM and the TGI (A549 NSCLC) was over 100 µM. It also gave a TGI (ACHN renal) of over 100 µM, a TGI (CAKI-1 renal) of over 100 µM and a TGI (CCRF-CEM leukemia) of over 100 µM. It also gave a TGI (COLO 205 colon) of over 100 µM, a TGI (DLD-1 colon) of over 100 µM and a TGI (EKVX NSCLC) of over 100 µM. For the same molecule, the TGI (HCC-2998 colon) was over 100 µM, the TGI (HCT-116 colon) was over 100 µM and the TGI (HCT-15 colon) was over 100 µM. For the same molecule, the TGI (HL-60(TB) leukemia) was over 100 µM, the TGI (HOP-92 NSCLC) was over 100 µM and the TGI (HT29 colon) was over 100 µM. For the same molecule, the TGI (IGROV1 ovarian) was over 100 µM, the TGI (KM12 colon) was over 100 µM and the TGI (KM20L2 colon) was over 100 µM. The TGI (LOX IMVI melanoma) was over 100 µM, the GI50 (LXFL 529 NSCLC) was over 100 µM and the TGI (LXFL 529 NSCLC) was over 100 µM. The TGI (MALME-3M melanoma) was 27.7 µM, the TGI (MOLT-4 leukemia) was over 100 µM and the TGI (NCI-H226 lung) was over 100 µM. It also gave a TGI (NCI-H23 lung) of over 100 µM, a TGI (NCI-H460 lung) of over 100 µM and a TGI (NCI-H522 lung) of over 100 µM. It also gave a TGI (OVCAR-3 ovarian) of over 100 µM, a TGI (OVCAR-5 ovarian) of over 100 µM and a TGI (OVCAR-8 ovarian) of over 100 µM. The TGI (RXF 393 renal) was over 100 µM, the TGI (SF-268 CNS) was over 100 µM and the TGI (SF-295 CNS) was over 100 µM. The TGI (SF-539 CNS) was over 100 µM, the TGI (SK-MEL-2 melanoma) was over 100 µM and the TGI (SK-MEL-28 melanoma) was over 100 µM. For the same molecule, the TGI (SK-MEL-5 melanoma) was over 100 µM, the TGI (SK-OV-3 ovarian) was over 100 µM and the TGI (SN12C renal) was over 100 µM. For the same molecule, the TGI (SNB-75 CNS) was over 100 µM, the TGI (SNB-78 CNS) was over 100 µM and the TGI (SR leukemia) was over 100 µM. It also gave a TGI (SW-620 colon) of over 100 µM, a TGI (TK-10 renal) of over 100 µM and a TGI (U251 CNS) of over 100 µM. For the same molecule, the TGI (UACC-257 melanoma) was over 100 µM and the TGI (UACC-62 melanoma) was over 100 µM.

Work on `O=C(CSc1nnc(Cc2ccccc2)o1)Nc1cccc([N+](=O)[O-])c1` yielded a TGI (786-0 renal) of over 100 µM, a TGI (A549 NSCLC) of over 100 µM and a TGI (ACHN renal) of over 100 µM. For the same molecule, the TGI (CCRF-CEM leukemia) was over 100 µM, the TGI (COLO 205 colon) was over 100 µM and the TGI (DLD-1 colon) was over 100 µM. It also gave a TGI (DMS 114 small cell lung) of over 100 µM, a TGI (DMS 273 small cell lung) of over 100 µM and a TGI (HCC-2998 colon) of over 100 µM. The TGI (HCT-116 colon) was over 100 µM, the TGI (HCT-15 colon) was over 100 µM and the TGI (HL-60(TB) leukemia) was over 100 µM. For the same molecule, the TGI (HOP-18 NSCLC) was over 100 µM, the TGI (HOP-62 NSCLC) was over 100 µM and the TGI (HT29 colon) was over 100 µM. It also gave a TGI (IGROV1 ovarian) of over 100 µM, a TGI (K-562 leukemia) of over 100 µM and a TGI (KM12 colon) of over 100 µM. For the same molecule, the TGI (KM20L2 colon) was over 100 µM, the TGI (LOX IMVI melanoma) was over 100 µM and the TGI (LXFL 529 NSCLC) was over 100 µM. For the same molecule, the TGI (M14 melanoma) was over 100 µM, the TGI (M19-MEL melanoma) was over 100 µM and the TGI (MALME-3M melanoma) was over 100 µM. It also gave a TGI (MOLT-4 leukemia) of over 100 µM, a TGI (NCI-H226 lung) of over 100 µM and a TGI (NCI-H23 lung) of over 100 µM. The TGI (NCI-H460 lung) was over 100 µM, the TGI (NCI-H522 lung) was over 100 µM and the TGI (OVCAR-3 ovarian) was over 100 µM. For the same molecule, the TGI (OVCAR-4 ovarian) was over 100 µM, the TGI (OVCAR-5 ovarian) was over 100 µM and the TGI (OVCAR-8 ovarian) was over 100 µM. For the same molecule, the TGI (RPMI-8226 leukemia) was over 100 µM, the TGI (RXF 393 renal) was over 100 µM and the TGI (SF-268 CNS) was over 100 µM. It also gave a TGI (SF-295 CNS) of over 100 µM, a TGI (SF-539 CNS) of over 100 µM and a TGI (SK-MEL-2 melanoma) of over 100 µM. For the same molecule, the TGI (SK-MEL-28 melanoma) was over 100 µM, the TGI (SK-MEL-5 melanoma) was over 100 µM and the TGI (SK-OV-3 ovarian) was over 100 µM. For the same molecule, the TGI (SN12C renal) was over 100 µM, the TGI (SNB-75 CNS) was over 100 µM and the TGI (SNB-78 CNS) was over 100 µM. The TGI (TK-10 renal) was over 100 µM, the TGI (U251 CNS) was over 100 µM and the TGI (UACC-257 melanoma) was over 100 µM. The TGI (UACC-62 melanoma) was over 100 µM and the TGI (UO-31 renal) was over 100 µM.

— PubChem BioAssay (NCI)
